# Reference: patent US4335249A, “Herbicidal diphenyl ethers, sulfides, sulfoxides and sulfones” (Rohm and Haas Company, priority 1976, dated 1982)
# How the values were obtained:
# Format in all cases: in vivo
# [1] = test system: yellow nutsedge (Cyperus esculentus); assay: Preemergence herbicidal activity, yellow nutsedge; conditions: 2 lb/A; for pest or weed control at 2241.7 g/ha: Cyperus, pre-emergence, 336 h; for % control, Nutsedge: Pre
# Experimental: (§1) Using the procedure described below, compounds of the invention are evaluated for control of several of the following plant species:
# (§2) The following est procedure is employed. Seeds of selected crops and weeds are planted in soil in flats. For preemergence tests, the flats are treated with the test compound immediately after the planting. For postemergence tests, the seeds are allowed to germinate, and after two weeks the flats are treated with the test compound. The compound to be evaluated is dissolved in acetone, diluted with water, and sprayed over the flats using a carrier volume equivalent to 50 gallons per acre at the rate of application (pounds per acre, lb/A.) specified in the tables. About two weeks after the application of the test compound, the state of growth of the plants is observed and the phytotoxic effect of the compound is evaluated. Tables III and IV give the average percent control achieved by test compounds in terms of the percent of the plants which are killed by the compounds.
# [2] = test system: foxtail (Setaria spp.); assay: Preemergence herbicidal activity, foxtail; conditions: Pre, 2 lb/A; for pest or weed control at 2241.7 g/ha: Setaria, pre-emergence, 336 h
# Experimental: as §1, §2
# [3] = test system: wild oats (Avena fatua); assay: Preemergence herbicidal activity, wild oats; conditions: Pre, 2 lb/A; for pest or weed control at 2241.7 g/ha: Avena fatua, pre-emergence, 336 h, read-out: % control, Wild oat
# Experimental: as §1, §2
# [4] = test system: wild oats (Avena fatua); assay: Postemergence herbicidal activity, wild oats; conditions: Post, 2 lb/A; for pest or weed control at 2241.7 g/ha: Avena fatua, post-emergence, 336 h, read-out: % control, Wild oat
# Experimental: as §1, §2
# [5] = test system: downybrome (Bromus tectorum); assay: Preemergence herbicidal activity, downybrome; conditions: Pre, 2 lb/A; for pest or weed control at 2241.7 g/ha: Bromus tectorum, pre-emergence, 336 h
# Experimental: as §1, §2
# [6] = test system: barnyardgrass (Echinochloa crusgalli); assay: Preemergence herbicidal activity, barnyardgrass; conditions: Pre, 2 lb/A; for pest or weed control at 2241.7 g/ha: Echinochloa crus-galli, pre-emergence, 336 h
# Experimental: as §1
# (§3) The following est procedure is employed. Seeds of selected crops and weeds are planted in soil in flats. For preemergence tests, the flats are treated with the test compound immediately after the planting. For postemergence tests, the seeds are allowed to germinate, and after two weeks the flats are treated with the test compound. The compound to be evaluated is dissolved in acetone, diluted with water, and sprayed over the flats using a carrier volume equivalent to 50 gallons per acre at the rate of application (pounds per acre, lb/A.) specified in the tables.
# [7] = test system: morningglory (Ipomoca spp.); assay: Postemergence herbicidal activity, morningglory; conditions: 2 lb/A; for pest or weed control at 2241.7 g/ha: Ipomoea, post-emergence, 336 h; for % control, Morningglory: Post
# Experimental: as §1, §2
# [8] = test system: foxtail (Setaria spp.); assay: Postemergence herbicidal activity, foxtail; conditions: Post, 2 lb/A; for pest or weed control at 2241.7 g/ha: Setaria, post-emergence, 336 h
# Experimental: as §1, §2
# [9] = test system: downybrome (Bromus tectorum); assay: Postemergence herbicidal activity, downybrome; conditions: Post, 2 lb/A; for pest or weed control at 2241.7 g/ha: Bromus tectorum, post-emergence, 336 h
# Experimental: as §1, §2
# [10] = test system: barnyardgrass (Echinochloa crusgalli); assay: Postemergence herbicidal activity, barnyardgrass; conditions: Post, 2 lb/A; for pest or weed control at 2241.7 g/ha: Echinochloa crus-galli, post-emergence, 336 h
# Experimental: as §1, §3
# [11] = test system: marigold (Tagetes spp.); assay: Postemergence herbicidal activity, marigold; conditions: 2 lb/A; for pest or weed control at 2241.7 g/ha: post-emergence, 336 h; for % control, Marigold: Post
# Experimental: as §1, §2
# [12] = test system: morningglory (Ipomoca spp.); assay: Preemergence herbicidal activity, morningglory; conditions: 2 lb/A; for pest or weed control at 2241.7 g/ha: Ipomoea, pre-emergence, 336 h; for % control, Morningglory: Pre
# Experimental: as §1, §2
# [13] = test system: marigold (Tagetes spp.); assay: Preemergence herbicidal activity, marigold; conditions: 2 lb/A; for pest or weed control at 2241.7 g/ha: pre-emergence, 336 h; for % control, Marigold: Pre
# Experimental: as §1, §2
# [14] = test system: velvetleaf (Abutilon theophrasti); assay: Postemergence herbicidal activity, velvetleaf; conditions: 2 lb/A; for pest or weed control at 2241.7 g/ha: Abutilon theophrasti, post-emergence, 336 h; for % control, Velvetleaf: Post
# Experimental: as §1, §3
# [15] = test system: cocklebur (Xanthium pensylvanicum); assay: Postemergence herbicidal activity, cocklebur; conditions: 2 lb/A; for pest or weed control at 2241.7 g/ha: Xanthium strumarium, post-emergence, 336 h; for % control, Cocklebur: Post
# Experimental: as §1, §2
# [16] = test system: velvetleaf (Abutilon theophrasti); assay: Preemergence herbicidal activity, velvetleaf; conditions: Pre, 2 lb/A; for pest or weed control at 2241.7 g/ha: Abutilon theophrasti, pre-emergence, 336 h
# Experimental: as §1, §2
# [17] = test system: tomato (Lycopersicon esculentum); assay: Preemergence herbicidal activity, tomato; conditions: Pre, 2 lb/A; for pest or weed control at 2241.7 g/ha: Solanum lycopersicum, pre-emergence, 336 h
# Experimental: as §1, §2
# [18] = test system: tomato (Lycopersicon esculentum); assay: Postemergence herbicidal activity, tomato; conditions: Post, 2 lb/A; for pest or weed control at 2241.7 g/ha: Solanum lycopersicum, post-emergence, 336 h
# Experimental: as §1, §2
# [19] = test system: yellow nutsedge (Cyperus esculentus); assay: Postemergence herbicidal activity, yellow nutsedge; conditions: 2 lb/A; for pest or weed control at 2241.7 g/ha: Cyperus, post-emergence, 336 h; for % control, Nutsedge: Post
# Experimental: as §1, §2
# [20] = test system: cocklebur (Xanthium pensylvanicum); assay: Preemergence herbicidal activity, cocklebur; conditions: 2 lb/A; for pest or weed control at 2241.7 g/ha: Xanthium strumarium, pre-emergence, 336 h; for % control, Cocklebur: Pre
# Experimental: as §1, §2
Structure (SMILES),"% control, Nutsedge [1]","% control, Foxtail [2]","% control, Wild oat [3]","% control, Wild oat [4]","% control, Downybrome [5]","% control, Barnyardgrass [6]","% control, Morningglory [7]","% control, Foxtail [8]","% control, Downybrome [9]","% control, Barnyardgrass [10]","% control, Marigold [11]","% control, Morningglory [12]","% control, Marigold [13]","% control, Velvetleaf [14]","% control, Cocklebur [15]","% control, Velvetleaf [16]","% control, Tomato [17]","% control, Tomato [18]","% control, Nutsedge [19]","% control, Cocklebur [20]",other results
CCOC(=O)C(C)Oc1ccc(Oc2ccc(C(F)(F)F)cc2Cl)cc1C (stereo not drawn) [Example 10],,,,,,,,,,,,,,,,,,,,,pest or weed control at 2241.7 g/ha [1]: 0%; pest or weed control at 2241.7 g/ha [2]: 0%; pest or weed control at 2241.7 g/ha [3]: 0%; pest or weed control at 2241.7 g/ha [4]: 0%; pest or weed control at 2241.7 g/ha [5]: 0%; pest or weed control at 2241.7 g/ha [6]: 0%; pest or weed control at 2241.7 g/ha [7]: 80%; pest or weed control at 2241.7 g/ha [8]: 0%; pest or weed control at 2241.7 g/ha [9]: 0%; pest or weed control at 2241.7 g/ha [10]: 0%; pest or weed control at 2241.7 g/ha [11]: 0%; pest or weed control at 2241.7 g/ha [12]: 0%; pest or weed control at 2241.7 g/ha [13]: 0%; pest or weed control at 2241.7 g/ha [14]: 40%; pest or weed control at 2241.7 g/ha [15]: 40%; pest or weed control at 2241.7 g/ha [16]: 0%; pest or weed control at 2241.7 g/ha [17]: 0%; pest or weed control at 2241.7 g/ha [18]: 30%; pest or weed control at 2241.7 g/ha [19]: 0%; pest or weed control at 2241.7 g/ha [20]: 0%
CCOC(=O)COc1ccc(Oc2ccc(C(F)(F)F)cc2Cl)cc1 [Example 11],,,,,,,,,,,,,,,,,,,,,pest or weed control at 2241.7 g/ha [1]: 0%; pest or weed control at 2241.7 g/ha [2]: 30%; pest or weed control at 2241.7 g/ha [3]: 0%; pest or weed control at 2241.7 g/ha [4]: 40%; pest or weed control at 2241.7 g/ha [5]: 0%; pest or weed control at 2241.7 g/ha [6]: 0%; pest or weed control at 2241.7 g/ha [7]: 30%; pest or weed control at 2241.7 g/ha [8]: 30%; pest or weed control at 2241.7 g/ha [9]: 0%; pest or weed control at 2241.7 g/ha [10]: 20%; pest or weed control at 2241.7 g/ha [11]: 0%; pest or weed control at 2241.7 g/ha [12]: 0%; pest or weed control at 2241.7 g/ha [13]: 0%; pest or weed control at 2241.7 g/ha [14]: 20%; pest or weed control at 2241.7 g/ha [15]: 50%; pest or weed control at 2241.7 g/ha [16]: 0%; pest or weed control at 2241.7 g/ha [17]: 0%; pest or weed control at 2241.7 g/ha [18]: 0%; pest or weed control at 2241.7 g/ha [19]: 0%; pest or weed control at 2241.7 g/ha [20]: 0%
CC(Oc1ccc(Oc2ccc(C(F)(F)F)cc2Cl)cc1)C(=O)O (stereo not drawn) [Example 12],0%,100%,60%,70%,0%,100%,0%,100%,60%,100%,0%,0%,0%,0%,0%,0%,0%,0%,0%,0%,
CC(Oc1ccc(Oc2ccc(C(F)(F)F)cc2Cl)cc1)C(=O)O (stereo not drawn) [Example 13],0%,100%,70%,60%,70%,100%,0%,90%,20%,100%,0%,0%,0%,0%,0%,0%,0%,0%,0%,0%,
"CC(Oc1ccc(Oc2ccc(C(F)(F)F)cc2Cl)cc1)C(=O)O (stereo not drawn) [Example 14, Sodium 2-[4-(2-chloro-4-trifluoromethylphenoxy)phenoxy] propionate]",0%,100%,40%,80%,50%,100%,0%,95%,20%,100%,0%,0%,0%,0%,0%,0%,0%,0%,0%,0%,
CC(Oc1ccc(Oc2ccc(C(F)(F)F)cc2Cl)cc1)C(=O)O (stereo not drawn) [Example 15],0%,100%,0%,20%,0%,100%,0%,90%,0%,,0%,40%,0%,0%,0%,0%,0%,0%,0%,0%,pest or weed control at 2241.7 g/ha [10]: 90%
CC(Oc1ccc(Oc2ccc(C(F)(F)F)cc2Cl)cc1)C(=O)O (stereo not drawn) [Example 16],0%,100%,70%,80%,70%,100%,0%,90%,0%,100%,0%,0%,0%,0%,0%,0%,0%,0%,0%,0%,
CC(Oc1ccc(Oc2ccc(C(F)(F)F)cc2Cl)cc1)C(=O)O (stereo not drawn) [Example 17],0%,100%,95%,80%,30%,100%,0%,90%,0%,99%,0%,0%,0%,0%,0%,0%,0%,0%,0%,0%,
CC(Oc1ccc(Oc2ccc(C(F)(F)F)cc2Cl)cc1)C(N)=O (stereo not drawn) [Example 18],,,,,,,,,,,,,,,,,,,,,pest or weed control at 2241.7 g/ha [1]: 0%; pest or weed control at 2241.7 g/ha [2]: 100%; pest or weed control at 2241.7 g/ha [3]: 0%; pest or weed control at 2241.7 g/ha [4]: 95%; pest or weed control at 2241.7 g/ha [5]: 95%; pest or weed control at 2241.7 g/ha [6]: 100%; pest or weed control at 2241.7 g/ha [7]: 0%; pest or weed control at 2241.7 g/ha [8]: 99%; pest or weed control at 2241.7 g/ha [9]: 40%; pest or weed control at 2241.7 g/ha [10]: 99%; pest or weed control at 2241.7 g/ha [11]: 0%; pest or weed control at 2241.7 g/ha [12]: 0%; pest or weed control at 2241.7 g/ha [13]: 0%; pest or weed control at 2241.7 g/ha [14]: 0%; pest or weed control at 2241.7 g/ha [15]: 0%; pest or weed control at 2241.7 g/ha [16]: 0%; pest or weed control at 2241.7 g/ha [17]: 0%; pest or weed control at 2241.7 g/ha [18]: 0%; pest or weed control at 2241.7 g/ha [19]: 0%; pest or weed control at 2241.7 g/ha [20]: 0%
